Results reported in patent US20240294499A1, “TARGETED PROTEIN DEGRADATION USING BIFUNCTIONAL COMPOUNDS THAT BIND UBIQUITIN LIGASE AND TARGET MCL-1 PROTEIN” (Captor Therapeutics S.A., priority 2021, published 2024).

Tests used:
iCELL Cardiomyocytes = experiment: Cardiac safety: caspase 3 and 7 activation (Caspase-Glo 3/7) in iCELL Cardiomyocytes; assay type: cell-based
Text: The effect of various compounds of the invention and a reference compound AZD5991 on cardiac safety was investigated by the evaluation of caspase 3 and 7 activation using Caspase-Glo 3/7 Assay (Promega; G8092) in iCELL™ Cardiomyocytes from FUJIFILM Cellular Dynamics (Catalog number: 11713). In the Caspase-Glo® 3/7 Assay, the luminescence (measured as Relative Luciferase Units, RLU) is proportional to the amount of caspase activity present in each sample.
The assay is initiated by thawing and seeding iCell® Cardiomyocytes as specified in the User Guide. After 48 hours, the cells are washed to remove unattached cells and debris and immediately treated with compounds or DMSO diluted in the maintenance medium (FCDI; cat: M1003). Compound concentrations used in this assay: 7 points 1/3 dilution curve starting at 100 uM. After 24 hours of incubation with compounds, caspase activity is measured by the addition of the Caspase-Glo® 3/7 Reagent followed by the luminescence measurement.
The analysis of the results is performed by calculation of the fold change in caspase 3/7 activity at a given compound concentration. Fold change is calculated with the formula: […]
where: • RLU Xi is the Relative Luciferase Units of sample I; • RLU BG is the Background Relative Luciferase Units; • RLU C is the Relative Luciferase Units of Control (DMSO).
The experiments were performed in technical duplicates.

MV-4-11 cells = experiment: Induction of apoptosis in cancer cells, flow cytometry (Annexin V/PI); assay type: cell-based; conditions: MV-4-11 cells, 1, 3, 10, 30 and 100 nM, 24 hours
Experimental: The effect of compound 204 of the invention MV-4-11 cells was investigated using the following protocol.
MV-4-11 cells were seeded on 24-well plates (1 ml) in growth medium containing 1% FBS. Immediately after seeding, compounds in appropriate concentrations were added directly to the cell culture medium. After 24 hours incubation, cells were washed twice with cold DPBS and the staining was performed using the FITC Annexin V Apoptosis Detection Kit I (BD Pharmingen; 556547). Samples were then analyzed by flow cytometry (LSR Fortessa X-20; BD Biosciences) within 1 hr. Results were evaluated using FlowJo (V10) software.
FIG. 6 presents the induction of apoptosis in MV-4-11 cells treated with 204 at 1, 3, 10, 30, and 100 nM concentration for 24 hours, as indicated.

Cc1nn(C)c(C)c1-c1c(Cl)ccc2c(CCCOc3cccc4ccccc34)c(C(=O)O)n(CCN3CCN(C(=O)COc4cccc5c4C(=O)N(C4CCC(=O)NC4=O)C5=O)CC3)c12 (stereo not drawn) [Compound 204, 6-chloro-1-(2-(4-(2-((2-(2,6-dioxopiperidin-3-yl)-1,3-dioxoisoindolin-4-yl)oxy)acetyl)piperazin-1-yl)ethyl)-3-(3-(naphthalen-1-yloxy)propyl)-7-(1,3,5-trimethyl-1H-pyrazol-4-yl)-1H-indole-2-carboxylic acid]
Fold change at 1.2 uM (caspase 3/7 activity in cardiomyocytes) (iCELL Cardiomyocytes; 1.2 uM, 24 hours incubation, vs DMSO): ≤1.5 ± 0.2 | activity in caspase activity assay in cardiomyocytes (iCELL Cardiomyocytes; as opposed to reference compound AZD5991): little to no activity | population of late apoptotic/cell death (Annexin+/PI+) cells (MV-4-11 cells): concentration dependent increase
